Test results reported in US20080124338A1, “METHODS FOR TREATMENT OF INFLAMMATORY DISEASE AND CHLAMYDIA INFECTIOUS DISEASE” (The Scripps Research Institute, priority 2006, published 2008).
Entries after “also recorded” stand apart in the source; their conditions may differ. Peptide text beside a SMILES is read from it. * marks the point of attachment. Cbz = O=C(OCc1ccccc1)*

Experiments:
[1] = system: p65 cleavage activity of Chlamydia; assay: In vitro p65 cleavage assay with solubilized chlamydial EB proteins; format: biochemical; details: 37° C. for 60 min; inhibitor added 30 min prior to p65; EDTA 5 mM, lactacystin 10 μM; FIG. 2C
Protocol: Purified Chlamydia EB was solubilized with a buffer containing 1% NP-40. […] The graph represents the rates of p65 disappearance and p40 appearance in the same reaction. C. […] In parallel experiments, protease inhibitors were included in the in vitro p65 cleavage assay. […] Lane 4: Roche protease inhibitor cocktail at 10×; Lane 5: heat-inactivated EB; Lane 6: EDTA at 5 mM; Lane 7: Lactacystin at 10 μM; Lane 8: MG132 at 20 μM; Lane 9: TPCK at 20 μM; and Lane 10: TLCK at 20 μM. The presence of the chlamydial major outer membrane protein (MOMP) was used as a measure of EB protein input (lower panel).
In vitro p65 cleavage assays. Gradient purified chlamydial EB were solubilized with Tris-buffered saline, supplemented with 1% NP-40. The soluble proteins were collected and used for p65 cleavage assays. […] For inhibition assays, an inhibitor was added 30 min prior to the addition of p65 protein. All assays were performed at 37° C. for 60 min or as otherwise indicated.

proteasomal degradation = assay: Detection of p22 cleavage product in cells treated with MG-132; format: cell-based; details: Chlamydia-infected cells treated with MG-132; data not shown
Excerpt: The cleavage of p65 was confirmed by the detection of a 22 kDa fragment with a C-terminus specific antibody against p65 (FIG. 1C). […] The 40 kDa fragment was further characterized with MALDI proteomics. Thus, 293T cells, transfected for GST-p65 protein expression, were infected with LGV2 for 28 hr. After purification, the cleavage product was subjected to trypsin digestion followed by MALDI TOF identification. Seven proteolytic fragments were detected, which covered the N-terminal GST tag and the RHD region of p65 (supplemental data).
Western blots. Except as noted, extracts were prepared by lysis of cells with a buffer containing 143 mM NaCl, 50 mM Tris-HCl (pH 7.5), 1 mM DTT, 1% NP-40, 0.1% SDS and protease inhibitors (Roche). Soluble proteins were separated by SDS-PAGE or Tris-Glycine gels (Novex). Blots were probed with specific antibodies. Horseradish peroxidase conjugated secondary antibodies (Sigma) and ECL reagent kit (Pierce) were used for detection.

[2] = system: Chlamydia trachomatis LGV2; assay: p65 cleavage in Chlamydia-infected cells treated with antibiotics (immunoblotting); format: cell-based; details: rifampin 0.1 μg/ml, chloramphenicol 60 μg/ml, penicillin G 100 μg/ml, FIG. 1E
Protocol: A. Hela 229 cells were infected with Chlamydia trachomatis LGV2 at 1 IFU/cell for varying times, or with invasive (wt) or invasion-defective (mut) Salmonella typhimurium for 2 hr. IκBα expression and degradation were detected by immunoblotting analyses. TNFα (10 ng/ml) was used as a positive control. B. Hela 229 cells were infected with LGV2 at 1 IFU/cell for 2, 16 and 24 hr. The cytosolic (C) and nuclear (N) fractions were separated and redistribution of p65/RelA was detected by immunoblotting analysis. The expression of lamin A and β-tubulin were used as loading controls for nuclear and cytosolic fractions, respectively. C. Whole cell lysates from Chlamydia-infected cells were separated by SDS-PAGE and cleavage of p65 was detected with an N- or C-terminus specific antibody against p65. D. Selective cleavage of p65 by Chlamydia infection. The expression of NF-κB pathway signaling molecules in Chlamydia-infected and non-infected control cells was determined by immunoblotting analysis. E. Inhibition of Chlamydia growth blocks p65 cleavage. The infected cells were treated with rifampin (Rif, 0.1 μg/ml) or chloramphenicol (Chl, 60 μg/ml), reagents that inhibit Chlamydia growth by blocking transcription or translation, respectively. […] The expression of β-tubulin or Erk2/MAPK was used as loading controls. All experiments were performed at least 3 times.
Infection assays. […]

IκBα = IκBα degradation in Hela 229 cells (immunoblotting); format: cell-based; details: TNFα 10 ng/ml, positive control, FIG. 1A
Excerpt: The host inflammatory response to bacterial infection or proinflammatory cytokine and LPS stimulation is mediated by NF-κB activity, which is regulated by the selective degradation of IκB proteins. Karin and Ben-Neriah, Annu. Rev. Immunol 18: 621, 2000; Richmond, Nat. Rev. Immunol 2: 664, 2002. To investigate whether Chlamydia targeted the NF-κB pathway to interfere with host inflammatory response, we first examined the integrity of IκBα, a regulatory molecule of NF-κB activation. To this end, monolayers of Hela 229 cells were infected with C. trachomatis LGV2 at 1 inclusion forming unit per cell (1 IFU/cell) for varying time points. Lad et al., J Immunol 174: 7186, 2005. […]
A. Hela 229 cells were infected with Chlamydia trachomatis LGV2 at 1 IFU/cell for varying times, or with invasive (wt) or invasion-defective (mut) Salmonella typhimurium for 2 hr. IκBα expression and degradation were detected by immunoblotting analyses. […] The cytosolic (C) and nuclear (N) fractions were separated and redistribution of p65/RelA was detected by immunoblotting analysis. […] Whole cell lysates from Chlamydia-infected cells were separated by SDS-PAGE and cleavage of p65 was detected with an N- or C-terminus specific antibody against p65. […] The expression of NF-κB pathway signaling molecules in Chlamydia-infected and non-infected control cells was determined by immunoblotting analysis. […]

NF-κB [3] = assay: pIL8-luciferase reporter gene assay in 293T cells; format: cell-based, human; details: TNFα 10 ng/ml, FIG. 3C, 3D
Protocol: (§1) We therefore investigated whether expression of CT441 interfered with NF-κB signal transduction. To this end, 293T cells were transfected with pIL8-luciferase (Kim et al., Cancer Res 65: 8784, 2005) and a plasmid for CT441 expression. The cells were then treated with TNFα to induce luciferase expression. In parallel experiments, we also included a mouse cell line for control purposes since murine p65 is resistant to cleavage by Chlamydia infection. […] The p40 cleavage product (amino acid residues 1-351) was then investigated for its inhibitory effect on TNFα-induced NF-κB activation.
(§2) A. Putative chlamydial proteases were expressed as N-terminal HA-tagged proteins in 293T cells and screened for their ability to cleave p65. […] 441, 494, 823 and 858 represent chlamydial CT441, CT494, CT823, and CT858, respectively. […] Monolayers of 293T or NIH3T3 cells were co-transfected with pIL8-Luc (Kim et al., Cancer Res 65: 8784, 2005) and a plasmid for the expression of chlamydial protease CT441 or the p40 cleavage product of p65. pSV40-RL was included as an internal control for transfection reactions. The cells were treated with TNFα (10 ng/ml) 18 hr post transfection to induce luciferase expression. Luciferase activities were determined with a Dual-Glo reagent kit (Promega) 18 hr after TNFα treatment. The ratio of firefly and Renilla luciferase activities (FL/RL) was plotted. […]

p65 = assay: Expression of putative chlamydial proteases in 293T cells, cleavage of endogenous p65 (Western blot); format: cell-based, human; details: N-terminal HA-tagged proteins expressed in 293T cells; FIG. 3A, 3B
Excerpt: The chlamydial genome encodes 16 proteases (Stephens et al., Science 282: 754, 1998), including four putative proteases that contain a leader sequence for periplasmic secretion and potential translocation by the chlamydial type III secretory system. The mature peptides of those putative proteases were therefore screened for their ability to cleave p65 after expression in 293T cells. […] CT441 encodes a tail-specific protease (Tsp) that is well conserved among Chlamydia species.
as §2, with “plotted. All transfections were performed in duplicate and the data are presented as means +/− error.” for “plotted.”

NF-κB [4] = assay: pIL8-luciferase reporter gene assay in NIH3T3 cells; format: cell-based, mouse; details: TNFα 10 ng/ml, FIG. 3C
Protocol: as §1, §2

Q: With `CC(=O)N[C@@H](CSC(=O)[C@]1([C@@H](O)C(C)C)NC(=O)[C@H](C)[C@@H]1O)C(=O)O` [lactacystin] as the molecule, how does the “p65 cleavage activity of Chlamydia (solubilized EB proteins)” value [1] read?
A: The value was “inhibited p65 cleavage activity”.

Q: For `CC(C)C[C@@H](C=O)NC(=O)[C@H](CC(C)C)NC(=O)[C@H](CC(C)C)NC(=O)OCc1ccccc1` [MG-132] (Cbz-Leu-Leu-Leu-aldehyde), which “detection of p22” value (proteasomal degradation) is on record?
A: Its value is “Enhanced detection of p22”.

Q: How did the “Chlamydia cleavage of p65” value [2] turn out when `CO[C@H]1/C=C/O[C@@]2(C)Oc3c(C)c(O)c4c(O)c(c(/C=N/N5CCN(C)CC5)c(O)c4c3C2=O)NC(=O)/C(C)=C\C=C\[C@H](C)[C@H](O)[C@@H](C)[C@@H](O)[C@@H](C)[C@H](OC(C)=O)[C@@H]1C` [rifampin] was run?
A: The value was “blocked”.

Q: How did the IκBα degradation (IκBα) turn out when TNFα was run?
A: Its IκBα degradation is “caused IκBα degradation”.

Q: Which “Chlamydia cleavage of p65” value [2] does the source give for `O=C(N[C@H](CO)[C@H](O)c1ccc([N+](=O)[O-])cc1)C(Cl)Cl` [chloramphenicol] here?
A: The value was “blocked”.

B1: p40: N-terminal p40 cleavage product of p65/RelA, amino acid residues 1-351 of SEQ ID NO:1 (protein, listed as Homo Sapiens)
chain: MDELFPLIFPAEPAQASGPYVEIIEQPKQRGMRFRYKCEGRSAGSIPGERSTDTTKTHPTIKINGYTGPGTVRISLVTKDPPHRPHPHELVGKDCRDGFYEAELCPDRCIHSFQNLGIQCVKKRDLEQAISQRIQTNNNPFQVPIEEQRGDYDLNAVRLCFQVTVRDPSGRPLRLPPVLPHPIFDNRAPNTAELKICRVNRNSGSCLGGDEIFLLCDKVQKEDIEVYFTGPGWEARGSFSQADVHRQVAIVFRTPPYADPSLQAPVRVSMQLRRPSDRELSEPMEFQYLPDTDDRHRIEEKRKRTYETFKSIMKKSPFSGPTDPRPPPRRIAVPSRSSASVPKPAPQPYPF
modifications: Myc tag
Q: For B1, which “TNFα-induced luciferase activity (NF-κB activation)” value (NF-κB [3]) is on record?
A: Its value is “inhibited luciferase expression; also recorded: inhibited NF-κB activity”.

B2: CT441: Chlamydia trachomatis tail-specific protease, SEQ ID NO:2 (protein, listed as Chlamydia trachomatis)
chain: MMRFARFCLLVLTLFPQLAFSAEPLRRQDVRKTVDKLVEHHIDTQQISPYILSRSLEDYVRSFDSHKAYLTQDEVFSHAFSEEATRPLFKQYQEDNFSSFKELDTCIQQSISRAREWRSSWLTDSIRVIQDAMSHTIEKKPSAWASSIEEVKQRQYDLLLSYASIYLEDAAKNRYQGKEHALVKLCIRQIENHENPYIGINDHGYRMSPEEEANSFHVRIIKSIAHSLDAHTAYFSQEEALSMRAQLEKGMCGIGVVLKEDIDGVVVKEVLAGGPADKTGSLRVGDIIYRVNGKNIENTPFPGVLDSLRGSPGSSVTLDIHRQNNDHVIQLRREKILLDSRRVDVSYEPYGNGIIGKITLHSFYEGENQVSSEQDLRKAIRELQEKNLLGLVLDIRENTGGFLSQAIKVSGLFLTNGVVVVSRYADGSVKRYRTISPQKFYDGPLAVLVSKSSASAAEIVAQTLQDYGVALIVGDQQTYGKGTIQHQTITGSNSQEDFFKVTVGRYYSPSGKSTQLEGVKSDIVIPSRYAEDKLGERFLEYALPADQYENVINDNLGDLDINIRPWFQKYYSPHLQKPELVWREMLPQLAHNSQERLEKNKNFEIFVQHLKKTNKQDRSFGSNDLQMEESVNIVKDMILLKSIS
Q: B2 was tested. Which “p65 cleavage after expression in 293T cells” value (p65) did it give?
A: The value was “caused p65 cleavage; also recorded: resulted in selective cleavage of p65”.

Q: What about the TNFα-induced luciferase expression (NF-κB [4]) of the same molecule?
A: Its TNFα-induced luciferase expression is “showed no effect”.

Q: What about the “TNFα-induced luciferase activity (NF-κB activation)” value (NF-κB [3]) of the same molecule?
A: The value was “inhibited TNFα-induced luciferase activity; also recorded: inhibited NF-κB activity”.

B3: CT858: chlamydial protease detected during an infection but not in purified EB (protein)
chain: MKMNRIWLLLLTFSSAIHSPVQGESLVCKNALQDLSFLEHLLQVKYAPKTWKEQYLGWDLVQSSVSAQQKLRTQENPSTSFCQQVLADFIGGLNDFHAGVTFFAIESAYLPYTVQKSSDGRFYFVDIMTFSSEIRVGDELLEVDGAPVQDVLATLYGSNHKGTAAEESAALRTLFSRMASLGHKVPSGRTTLKIRRPFGTTREVRVKWRYVPEGVGDLATIAPSIRAPQLQKSMRSFFPKKDDAFHRSSSLFYSPMVPHFWAELRNHYATSGLKSGYNIGSTDGFLPVIGPVIWESEGLFRAYISSVTDGDGKSHKVGFLRIPTYSWQDMEDFDPSGPPPWEEFAKIIQVFSSNTEALIIDQTNNPGGSVLYLYALLSMLTDRPLELPKHRMILTQDEVVDALDWLTLLENVDTNVESRLALGDNMEGYTVDLQVAEYLKSFGRQVLNCWSKGDIELSTPIPLFGFEKIHPHPRVQYSKPICVLINEQDFSCADFFPVVLKDNDRALIVGTRTAGAGGFVFNVQFPNRTGIKTCSLTGSLAVREHGAFIENIGVEPHIDLPFTANDIRYKGYSEYLDKVKKLVCQLINNDGTIILAEDGSF
modifications: left off: small tags and cut ends
notes: chlamydial protease detected during an infection but not in purified EB
Q: B3 was tested. Which “p65 cleavage after expression in 293T cells” value (p65) did it give?
A: Its value is “did not exhibit p65 cleavage activity”.
